Reference: patent US11944605B2, “Rapamycin analogs and uses thereof” (Janssen Pharmaceutica NV, priority 2018, dated 2024)
≈ marks a conversion by molar mass, not a printed value. Entries after “also recorded” stand apart in the source; their conditions may differ.

Key:
[1] = tested on: pS6K1 (p-p70 S6 Kinase (Thr389)) in MCF-7 cells; assay: AlphaLISA Ultra pS6K1 Assay; format: cell-based; settings: Homo sapiens, 1.5 h; MCF7 cells, 90 min
Method in brief: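 AlphaLISA Ultra read-out (acceptor beads 2 h, then donor beads 2 h) on thawed lysates of MCF-7 cells. Cells had 20–24 h after seeding and a 2 h medium change, then 90 min of compound exposure at 0.5% final DMSO, with lysates stored at −80 °C.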

[2] = tested on: pAKT (p-Akt 1/2/3 (Ser473)) in MCF-7 cells; assay: AlphaLISA Ultra pAKT Assay; format: cell-based; settings: Homo sapiens, 1.5 h; MCF7 cells, 90 min
Protocol: AlphaLISA Ultra pAKT Assay
1. MCF-7 cells in Corning 3701 plate and incubate for 20˜24 hour.
16,000˜20,000 cells will be seeded in 36 μL medium per well.
2. Change the culture medium with fresh medium and incubate for another 90 minutes.
3. […]
4. Aspirate […] by HAMILTON, 10 μL rest per well.
5. Add 10 μL 2× lysis buffer using HAMILTON; total volume in wells is 20 μL. Allow cells to shake for 30 min. Cover plate by plastic foil and store plate at −80° C. up to analysis.
6. Thaw cell lysate at RT and transfer 10 ul lysate to assay plate (Optiplate-384).
7. Add 5 μL acceptor beads into assay plate and incubation for 2 hours
8. Add 5 μL donor beads and incubation for 2 hours
9. Count the plate by EnSpire Multimode Plate Reader

mTORC1 over mTORC2 = assay: mTORC1 selectivity over mTORC2 at 24 hrs (Western blot based pS6K1 and pAKT assay); format: cell-based; settings: 24 hrs
[3] = Solubility in 100 mM phosphate buffer (pH 7.4); format: physicochemical; settings: pH 7.4, aqueous buffer
Text: The compound numbers correspond to the compound numbers in Table 1.

[4] = tested on: mTORC1 pathway (pS6K1 T389) in PC3 cells; assay: Western blot, mTORC1 pathway (pS6K1) in PC3 cells; format: cell-based; settings: PC3 cells, 24 hours
Protocol: (§1) Western Blot Based pS6K1 and pAKT Assay at 24 and 48 Hour Timepoints
(§2) 1. Seed six well plate with 500,000 PC3 cells per well and incubate for 20˜24 hour.
(§3) 2. Add compounds into the cell plate. Incubate for 24 to 48 hours.
(§4) 4. Plate is placed on ice and the media is removed via aspiration. The wells are washed with 1 mL of 1× PBS and then fully aspirated.
(§5) 5. 110 μL of 1% Triton Lysis Buffer is added and each well is scraped vigorously.
(§6) 6. Cell homogenates are transferred to 1.5 mL eppendorf tubes on ice and spun down at 4° C. for 10 minutes at 10,000 rpm.
(§7) 9. The membranes were washed 3× with TBS-T with a 5 minute incubation between each wash then incubated with secondary antibody (LiCor IRDye 800 Donkey Anti Rabbit) for at least 30 minutes.
(§8) 10. The membranes were washed 3× with TBS-T with a 5 minute incubation between each wash.
(§9) 11. The gels were then incubated for 5 minutes with PBS at room temperature then imaged using a Li-Cor.
(§10) The methods employed were substantially similar to those described above. Compounds were evaluated in PC3 cells, Jurkat cells, wild-type mouse embryotic fibroblast (MEF) cells, tuberous sclerosis 2 (TSC2) negative (TSC −/−) MEF cells, and tuberous sclerosis 2 (TSC2) positive (TSC +/+) MEF cells. Cells were incubated with compounds of the present invention for various time periods (e.g., 5 minutes, 15 minutes, 30 minutes, 90 minutes, 24 hours, or 48 hours), and evaluated according to known methodologies, such as those herein described.

[5] = tested on: mTORC2 pathway (Akt phosphorylation) in PC3 cells; assay: Western blot, mTORC2 pathway (pAkt) in PC3 cells; format: cell-based; settings: 24 hours
Protocol: as §1, §2, §3, §4, §5, §6, §7, §8, §9, §10

[6] = tested on: 4E-BP1 phosphorylation in PC3 cells; assay: Western blot, 4E-BP1 phosphorylation in PC3 cells; format: cell-based; settings: 24 hours
[7] = tested on: mTORC1 pathway in tuberous sclerosis 2 (TSC2) positive (TSC+/+) MEF cells; assay: Western blot, mTORC1 pathway in TSC+/+ MEF cells; format: cell-based, mouse; settings: 24 hours
Protocol: as §10

[8] = tested on: mTORC2 (Akt phosphorylation) in TSC+/+ MEF cells; assay: Western blot, mTORC2 pathway (pAkt) in TSC+/+ MEF cells; format: cell-based, mouse; settings: 24 hours
Protocol: as §10

SMILES | IC50 [1] [nM] | IC50 [2] [nM] | mTORC1 selective @ 24 hrs (mTORC1 over mTORC2) | solubility [3] [µM] | inhibition of the mTORC1 pathway [4] | inhibition of mTORC2 (Akt phosphorylation) [5] | inhibition of 4E-BP1 phosphorylation [6] | inhibition of the mTORC1 pathway [7] | inhibition of mTORC2 (Akt phosphorylation) [8]
CO[C@@H]1C[C@H](C[C@@H](C)[C@@H]2CC(=O)[C@H](C)/C=C(\C)[C@@H](O)[C@@H](OC)C(=O)[C@H](C)C[C@H](C)/C=C/C=C/C=C(\C)C(OCCCO)C[C@@H]3CC[C@@H](C)[C@@](O)(O3)C(=O)C(=O)N3CCCC[C@H]3C(=O)O2)CC[C@H]1O (stereo partly drawn) [I-34] | 0.1 to 1 | ≥ 100 | NO | 30 to 60 (≈ 28.7 to 57.5 µg/mL) |  |  |  |  | 
CO[C@@H]1C[C@H](C[C@@H](C)[C@@H]2CC(=O)[C@H](C)/C=C(\C)[C@@H](O)[C@@H](OC)C(=O)[C@H](C)C[C@H](C)/C=C/C=C/C=C(\C)C(OCCOCCO)C[C@@H]3CC[C@@H](C)[C@@](O)(O3)C(=O)C(=O)N3CCCC[C@H]3C(=O)O2)CC[C@H]1O (stereo partly drawn) [I-37] | 1 to 10 | ≥ 100 | YES | 30 to 60 (≈ 29.6 to 59.3 µg/mL) |  |  |  |  | 
CO[C@@H]1C[C@H](C[C@@H](C)[C@@H]2CC(=O)[C@H](C)/C=C(\C)[C@@H](O)[C@@H](OC)C(=O)[C@H](C)C[C@H](C)/C=C/C=C/C=C(\C)C(OCCO)C[C@@H]3CC[C@@H](C)[C@@](O)(O3)C(=O)C(=O)N3CCCC[C@H]3C(=O)O2)CC[C@H]1O (stereo partly drawn) [I-38, (21E,23E,25E,26E,30R,31S,32R,33R,35R,37S,40S,41R,42R,51S)-41, 51-dihydroxy-39-(2-hydroxyethoxy)-40-[(1S)-2-[(1S,3R,4R)-4-hydroxy-3-methoxy-cyclohexyl]-1-methyl-ethyl]-42-methoxy-30, 31,32,33,43,44-hexamethyl-62,63-dioxa-52-azatricyclohexatriaconta-21, 23,25(43),26(44)-tetraene-45,46,47,48,49-pentone] | < 0.1 | ≥ 100 | NO | 30 to 60 (≈ 28.3 to 56.7 µg/mL) |  |  |  |  | 
CO[C@@H]1C[C@H](C[C@@H](C)[C@@H]2CC(=O)[C@H](C)/C=C(\C)[C@@H](O)[C@@H](OC)C(=O)[C@H](C)C[C@H](C)/C=C/C=C/C=C(\C)C(OCCS(=O)(=O)CCS(=O)(=O)CCO)C[C@@H]3CC[C@@H](C)[C@@](O)(O3)C(=O)C(=O)N3CCCC[C@H]3C(=O)O2)CC[C@H]1O (stereo partly drawn) [I-102, (21E,23E,25E,26E,34R,35S,36R,37R,39R,41S,44S,45R,46R,55S)-45, 55-dihydroxy-43-[2-[2-(2-hydroxyethylsulfonyl)ethylsulfonyl]ethoxy]-44-[(1S)-2-[(1S,3R, 4R)-4-hydroxy-3-methoxy-cyclohexyl]-1-methyl-ethyl]-46-methoxy-34,35,36,37,47,48-hexamethyl-70, 71-dioxa-56-azatricyclohexatriaconta-21,23,25(47),26(48)-tetraene-49,50,51,52,53-pentone] | 10 to 100 |  | YES |  | strong inhibition | do not inhibit | no inhibition |  | 
CO[C@@H]1C[C@H](C[C@@H](C)[C@@H]2CC(=O)[C@H](C)/C=C(\C)[C@@H](O)[C@@H](OC)C(=O)[C@H](C)C[C@H](C)/C=C/C=C/C=C(\C)C(OCP(=O)(CO)CO)C[C@@H]3CC[C@@H](C)[C@@](O)(O3)C(=O)C(=O)N3CCCC[C@H]3C(=O)O2)CC[C@H]1O (stereo partly drawn) [I-106, (21E,23E,25E,26E,31R,32S,33R,34R,36S,38S,41S,42R,43R,52R)-40-[bis(hydroxymethyl)phosphorylmethoxy]-42,52-dihydroxy-4I-[(1R)-2-[(1S,3R,4R)-4-hydroxy-3-methoxy-cyclohexyl]-1-methyl-ethyl]-43-methoxy-31, 32,33,34,44,45-hexamethyl-65,66-dioxa-53-azatricyclohexatriaconta-21, 23,25(44),26(45)-tetraene-46,47,48,49,50-pentone] | 0.1 to 1 |  | YES |  | strong inhibition | do not inhibit | no inhibition |  | 
CO[C@@H]1C[C@H](C[C@@H](C)[C@@H]2CC(=O)[C@H](C)/C=C(\C)[C@@H](O)[C@@H](OC)C(=O)[C@H](C)C[C@H](C)/C=C/C=C/C=C(\C)[C@@H](OCCOCCOCCO)C[C@@H]3CC[C@@H](C)[C@@](O)(O3)C(=O)C(=O)N3CCCC[C@H]3C(=O)O2)CC[C@H]1OCCO [I-110, (21E,23E,25E,26E,36R,37S,38R,39R,41S,43S,45S,46S,47R,48R,57R)-47, 57-dihydroxy-45-[2-[2-(2-hydroxyethoxy)ethoxy]ethoxy]-46-[(1R)-2-[(1S,3R, 4R)-4-(2-hydroxyethoxy)-3-methoxy-cyclohexyl]-1-methyl-ethyl]-48-methoxy-36,37,38,39,49,50-hexamethyl-68, 69-dioxa-58-azatricyclohexatriaconta-21,23,25(49),26(50)-tetraene-51, 52,53,54,55-pentone] | 0.1 to 1 |  | YES |  |  |  |  | moderate concentration dependent inhibition | do not inhibit
CO[C@@H]1C[C@H](C[C@@H](C)[C@@H]2CC(=O)[C@H](C)/C=C(\C)[C@@H](O)[C@@H](OC)C(=O)[C@H](C)C[C@H](C)/C=C/C=C/C=C(\C)C(OCCCCCO)C[C@@H]3CC[C@@H](C)[C@@](O)(O3)C(=O)C(=O)N3CCCC[C@H]3C(=O)O2)CC[C@H]1O (stereo partly drawn) [I-113, (21E,23E,25E,26E,33R,34S,35R,36R,38S,40S,43S,44R,45R,54R)-44, 54-dihydroxy-43-[(1R)-2-[(1S,3R,4R)-4-hydroxy-3-methoxy-cyclohexyl]-1-methyl-ethyl]-42-(5-hydroxypentoxy)-45-methoxy-33, 34,35,36,46,47-hexamethyl-65,66-dioxa-55-azatricyclohexatriaconta-21, 23,25(46),26(47)-tetraene-48,49,50,51,52-pentone] | 0.1 to 1 |  | YES |  | strong inhibition | do not inhibit | no inhibition |  | 
CO[C@@H]1C[C@H](C[C@@H](C)[C@@H]2CC(=O)[C@H](C)/C=C(\C)[C@@H](O)[C@@H](OC)C(=O)[C@H](C)C[C@H](C)/C=C/C=C/C=C(\C)C(OC[C@H]3CO[C@@H](CO)CO3)C[C@@H]3CC[C@@H](C)[C@@](O)(O3)C(=O)C(=O)N3CCCC[C@H]3C(=O)O2)CC[C@H]1O (stereo partly drawn) [I-118, (23E,25E,27E,28E,32R,33S,34R,35R,36S,39S,41S,45R,46R,55R)-45, 55-dihydroxy-41-[(1R)-2-[(1S,2R,3R)-3-hydroxy-2-methoxy-cyclohexyl]-1-methyl-ethyl]-40-[[(25, 5S)-5-(hydroxymethyl)-1,4-dioxan-2-yl]methoxy]-46-methoxy-32,33,34,35,47,48-hexamethyl-68, 69-dioxa-56-azatricyclohexatriaconta-23,25,27(47),28(48)-tetraene-49,50,51,52,53-pentone] | 1 to 10 |  | YES |  | moderate concentration dependent inhibition; also recorded: strong inhibition | do not inhibit | no inhibition |  | 
